From patent publication US20240238212A1, “LIPID COMPOUNDS AND LIPID NANOPARTICLE COMPOSITIONS” (SUZHOU ABOGEN BIOSCIENCES CO., LTD., priority 2022, published 2024)

Experiments:
[1] = Encapsulation efficiency of lipid nanoparticles (Quant-it Ribogreen RNA assay); format: physicochemical; conditions: LNP comprising the compound, hEPO mRNA
Method: (§1) Briefly, a cationic lipid provided herein, DSPC, cholesterol, and PEG-lipid were solubilized in ethanol at a molar ratio of 50:10:38.5:1.5, and mRNA were diluted in 10 to 50 mM citrate buffer, pH=4. The LNPs were prepared at a total lipid to mRNA weight ratio of approximately 10:1 to 30:1 by mixing the ethanolic lipid solution with the aqueous mRNA solution at a volume ratio of 1:3 using a microfluidic apparatus, total flow rate ranging from 9-30 mL/min. Ethanol were thereby removed and replaced by DPBS using dialysis. Finally, the lipid nanoparticles were filtered through a 0.2 μm sterile filter.
(§2) Lipid nanoparticle size were determined by dynamic light scattering using a Malvern Zetasizer Nano ZS (Malvern UK) using a 173° backscatter detection mode. The encapsulation efficiency of lipid nanoparticles were determined using a Quant-it Ribogreen RNA quantification assay kit (Thermo Fisher Scientific, UK) according to the manufacturer's instructions.

[2] = Apparent pKa of LNP formulations (TNS fluorescence assay); format: physicochemical; conditions: LNP formulation, TNS assay (Table 2)
Method: As reported in literature, the apparent pKa of LNP formulations correlates with the delivery efficiency of LNPs for nucleic acids in vivo. The apparent pKa of each formulation was determined using an assay based on fluorescence of 2-(p-toluidino)-6-napthalene sulfonic acid (TNS). LNP formulations comprising of cationic lipid/DSPC/cholesterol/DMG-PEG (50/10/38.5/1.5 mol %) in PBS were prepared as described above. TNS was prepared as a 300 μM stock solution in distilled water. LNP formulations were diluted to 0.1 mg/mL total lipid in 3 mL of buffered solutions containing 50 mM sodium citrate, 50 mM sodium phosphate, 50 mM sodium borate, and 30 mM sodium chloride where the pH ranged from 3 to 9. An aliquot of the TNS solution was added to give a final concentration of […] and following vortex mixing fluorescence intensity was measured at room temperature in a Molecular Devices Spectramax iD3 spectrometer using excitation and mission wavelengths of 325 nm and 435 nm. A sigmoidal best fit analysis was applied to the fluorescence data and the pKa value was measured as the pH giving rise to half-maximal fluorescent intensity.

[3] = system: human erythropoietin (hEPO) mRNA expression; assay: Animal Study 1: hEPO mRNA LNPs i.v. in mice, serum EPO by ELISA; format: in vivo; conditions: female ICR mice, 0.5 mg/kg tail vein injection, blood e.g. 6 hours post administration; relative to MC3 LNP
Method: Lipid nanoparticles comprising compounds in the following table encapsulating human erythropoietin (hEPO) mRNA were systemically administered to 6-8 week old female ICR mice (Xipuer-Bikai, Shanghai) at 0.5 mg/kg dose by tail vein injection and mice blood were sampled at specific time points (e.g., 6 hours) post administration. In addition to the aforementioned tested groups, lipid nanoparticles comprising dilinoleylmethyl-4-dimethylaminobutyrate (DLin-MC3-DMA, usually abbreviated to MC3) encapsulating hEPO mRNA were similarly administered at the same dose to age and gender comparative groups of mice as a positive control.
Mice were euthanized by CO2 overdoses after the last sampling time point. Serum were separated from total blood by centrifugation at 5000 g for 10 minutes at 4 T, snap-frozen and stored at −80 T for analysis. ELISA assay were carried out using a commercial kit (DEP00, R&D systems) according to manufacturer's instructions.
Characteristics of tested lipid nanoparticles, including EPO expression levels over MC3 measured from the tested group are listed in the table below.

[4] = Lipid nanoparticle size and polydispersity by dynamic light scattering; format: physicochemical; conditions: LNP comprising the compound, hEPO mRNA; for Size (nm): cationic lipid/DSPC/cholesterol/PEG-lipid 50:10:38.5:1.5
Method: as §1, §2

Structure (SMILES) | Encapsulation efficiency [1] | Apparent pKa [2] | Polydispersity [4] | Size (nm) [4] | EPO expression over MC3 [3]
CCCCCCCCCCCCCCCCCC(=O)OCCCCCCN(CCO)CCCCC(COC(=O)CCCCCCC)COC(=O)CCCCCCC [Compound 21] | 93.42% | 6.962 | 0.017 | 73.11 nm | B (≥1 and <2)
CCCCCCCC(=O)OCC(CCCCN(CCCCC(COC(=O)CCCCCCC)COC(=O)CCCCCCC)CCCNc1c(N(C)CCC)c(=O)c1=O)COC(=O)CCCCCCC [Compound 35] | 89.19% | 6.138 | 0.05652 | 71.02 nm | A (≥2)
CCCCCCCCOC(CCCCCN(CCCCCO)CCCCCC(OCCCCCCCC)OCCCCCCCC)OCCCCCCCC [Compound 19] | 95.52% | 6.216 | 0.07 | 64.48 nm | B (≥1 and <2)
CCCCCCCC(=O)OCC(CCCCN(CCCCC(COC(=O)CCCCCCC)COC(=O)CCCCCCC)CCCNc1c(N(C)C)c(=O)c1=O)COC(=O)CCCCCCC [Compound 27] | 91.59% | 6.404 | 0.073 | 64.02 nm | A (≥2)
CCCCCCCCCCCCCCCCCC(=O)OCCCCCCN(CCCCC(COC(=O)CCCCCCC)COC(=O)CCCCCCC)C1CCC(O)CC1 (stereo not drawn) [Compound 36] | 85.90% | 6.867 | 0.1156 | 78.92 nm | C (≥0.1 and <1)
CCCCCCCC/C=C\CCCCCCCC(=O)OCCCCCCN(CCCCC(COC(=O)CCCCCCC)COC(=O)CCCCCCC)C1CCC(O)CC1 (stereo not drawn) [Compound 38] | 87.69% | 6.799 | 0.06385 | 100.3 nm | B (≥1 and <2)
CCCCCCCCC(CCCCCC)CNC(=O)CCCCCN(CCO)CCCCC(COC(=O)C(CCCCCC)CCCCCCCC)COC(=O)C(CCCCCC)CCCCCCCC (stereo not drawn) [Compound 26] | 85.33% | 6.332 | 0.01 | 55.11 nm | C (≥0.1 and <1)
CCCCCCCCCCCCCCCC(=O)OCCCCCCN(CCO)CCCCC(COC(=O)CCCCCCC)COC(=O)CCCCCCC [Compound 20] | 91.22% | 6.889 | 0.078 | 72.72 nm | A (≥2)
CCCCCCCC(=O)OCC(CCCCN(CCCCC(COC(=O)CCCCCCC)COC(=O)CCCCCCC)C1CC(O)C1)COC(=O)CCCCCCC (stereo not drawn) [Compound 23] | 89.04% | 6.601 | 0.084 | 69.97 nm | A (≥2)
CCCCCCCCOC(CCCCCN(CCCCO)CCCCCC(OCCCCCCCC)OCCCCCCCC)OCCCCCCCC [Compound 18] | 93.58% | 6.251 | 0.057 | 62.64 nm | B (≥1 and <2)
CCCCCCCC(=O)OCC(CCCCN(CCCCC(COC(=O)CCCCCCC)COC(=O)CCCCCCC)C1CCC(O)CC1)COC(=O)CCCCCCC (stereo not drawn) [Compound 16] | 90.78% | 6.509 | 0.021 | 68.14 nm | A (≥2)

Continued, in another order:

Encapsulation efficiency [1] | Apparent pKa [2] | Polydispersity [4] | Size (nm) [4] | Structure (SMILES) | EPO expression over MC3 [3]
94.81% | 6.271 | 0.012 | 106.71 nm | CCCCCCCC(=O)OCC(COC(=O)CCCCCCC)COC(=O)CCCCCN(CCCCCCO)CCCCCC(=O)OCC(COC(=O)CCCCCCC)COC(=O)CCCCCCC [Compound 69] | B (≥1 and <2)
94.82% | 6.283 | 0.012 | 66.23 nm | CCCCCCCCCCCCC(=O)OCC(COC(=O)CCCCCCCCCCCC)COC(=O)CCCCCN(CCO)CCCCCC(=O)OCC(COC(=O)CCCCCCCCCCCC)COC(=O)CCCCCCCCCCCC [Compound 74] | C (≥0.1 and <1)
94.95% | 6.705 | 0.026 | 87.2 nm | CCCCCCCC(=O)OCC(COC(=O)CCCCCCC)COC(=O)CCCCCN(CCCCO)CCCCCC(=O)OCC(COC(=O)CCCCCCC)COC(=O)CCCCCCC [Compound 67] | A (≥2)
89.21% | 6.653 | 0.057 | 64.77 nm | CCCCCCCC(=O)OCC(CCCCN(CCCCC(COC(=O)CCCCCCC)COC(=O)CCCCCCC)[C@H]1C[C@@H](O)C1)COC(=O)CCCCCCC [Compound 43] | A (≥2)
95.75% | 6.342 | 0.010 | 69.37 nm | CCCCCCCC(=O)OCC(CC)(COC(=O)CCCCCCC)COC(=O)CCCCCN(CCO)CCCCCC(=O)OCC(CC)(COC(=O)CCCCCCC)COC(=O)CCCCCCC [Compound 82] | A (≥2)
84.12% | 6.143 | 0.027 | 92.53 nm | CCCCCCCC(=O)OCC(CCCCN(CCCCC(COC(=O)CCCCCCC)COC(=O)CCCCCCC)[C@H]1C=C[C@@H](CO)C1)COC(=O)CCCCCCC [Compound 48] | A (≥2)
72.86% | 6.633 | 0.066 | 168.4 nm | CCCCCCCC(=O)OCC(CCCCN(CCCCC(COC(=O)CCCCCCC)COC(=O)CCCCCCC)[C@H]1CC[C@H](CO)CC1)COC(=O)CCCCCCC [Compound 59] | A (≥2)
94.90% | 6.679 | 0.109 | 63.7 nm | CCCCCCCC(=O)OCC(CCCCN(CCCCC(COC(=O)CCCCCCC)COC(=O)CCCCCCC)C1CC(CO)C1)COC(=O)CCCCCCC (stereo not drawn) [Compound 54] | B (≥1 and <2)
90.10% | 6.297 | 0.159 | 130.62 nm | CCCCCCCCC(CCCCCC)CNC(=O)CCCCCN(CCCCC(COC(=O)CCCCCCC)COC(=O)CCCCCCC)CCC1(O)CCCCC1 (stereo not drawn) [Compound 63] | C (≥0.1 and <1)
88.45% | 5.299 | 0.031 | 71.06 nm | CCCCCCCCC(CCCCCC)CNC(=O)CCCCCN(CCCCC(COC(=O)CCCCCCC)COC(=O)CCCCCCC)CC1(CO)CCCC1 (stereo not drawn) [Compound 62] | D (<0.1)
91.26% | 7.32 | 0.066 | 72.95 nm | CCCCCCCC(=O)OCC(CCCCN(CCCCC(COC(=O)CCCCCCC)COC(=O)CCCCCCC)C1CC(CO)(CO)C1)COC(=O)CCCCCCC [Compound 61] | C (≥0.1 and <1)
96.34% | 6.599 | 0.098 | 68.05 nm | CCCCCCCCCC(=O)OCC(COC(=O)CCCCCCCCC)COC(=O)CCCCCN(CCO)CCCCCC(=O)OCC(COC(=O)CCCCCCCCC)COC(=O)CCCCCCCCC [Compound 71] | A (≥2)
95.23% | 6.657 | 0.0478 | 77.38 nm | CCCCC/C=C\C/C=C\CCCCCCCC(=O)OCCCCCCN(CCCCC(COC(=O)CCCCCCC)COC(=O)CCCCCCC)CCCNc1c(N(C)C)c(=O)c1=O [Compound 42] | C (≥0.1 and <1)
